Test results from patent publication US7417156B2, “Orally active, antimalarial, anticancer, artemisinin-derived trioxane dimers” (Johns Hopkins University, priority 2002, dated 2008).
pIC50: −log10 of the molar value. Several values for one entry are separate records, joined by “and”; a condition that tells them apart may be missing. Identical values can stand only once. Counter-ions that a name gives are not always drawn. Like-named read-outs stand apart in the source and are kept apart here.

Legend:
[1] = tested on: P. berghei NY malaria parasite; assay: Antimalarial efficacies in vivo in mice
Description: Neither overt toxicity nor behavioral modification was observed due to drug administration in any of these mouse experiments.

[2] = tested on: chloroquine-sensitive P. falciparum (NF54); assay: Antimalarial activity in vitro, [3H]hypoxanthine incorporation; assay type: cell-based; conditions: for pIC50: read-out: IC50
[3] = Stability in air (room temperature; accelerated aging at 60° C.); assay type: physicochemical
Description: The next step, shown in FIG. 2, in the production of the novel meso trioxane dimer 3 involves the substitution of the acetoxy group from the C-10 acetate 2 product to form the meso trioxane dimer 3 product. Inspiration for this bis-allylation of C-10 acetate 2 was based on the pioneering trioxane mono-allylations of Ziffer (Pu, Y. M.; Ziffer, H., Synthesis and Antimalarial Activities of 12β-Allyldeoxoartemisinin. J. Med. Chem. 1995, 38, 613-616) and O'Neill (O'Neill, et al., J. Med. Chem. 1999, 42, 5487-5493; and O'Neill, P. M., et al., J. Chem. Soc., Perkin Trans. 2001, 1, 2682-2689.) using allylsilane and based also on allylic bis-silane chemistry, see Rychnovsky, S. D., et. al., Tetrahedron Lett. 1999, 40, 41-44. The requisite allylic bis-silane is easily prepared in one step from the corresponding commercial allylic dichloride (Shown in FIG. 2); in the presence of fresh tin tetrachloride, the allylic bis-silane converts acetate 2 on gram scale into meso dimer 3, characterized by ^1H NMR spectroscopy as done before in structurally related trioxanes. This double substitution reaction undoubtedly proceeds sequentially via initial monoallylation, producing an intermediate C-10 allylic silane that then reacts with another molecule of trioxane acetate 2 to form the product dimer 3. […]

[4] = tested on: 60 cell line panel; assay type: cell-based; conditions: leukemia cell line RPM 1-8226, melanoma cell line SK-MEL-5, renal cancer cell line ACHN
[5] = tested on: P. berghei; conditions: P. berghei-infected mice; cited from earlier work
[6] = tested on: Ehrlich ascites tumor (EAT) cells; conditions: MTT assay; cited from earlier work
[7] = tested on: malaria parasite; assay: Efficacy Study Blood Schizontocidal Activity; assay type: in vivo; set-up: ED90: unit not given here
[8] = tested on: male CD-1 mice; assay: Acute toxicity study, single intraperitoneal injection; conditions: single ip, male CD-1 mice
Procedure: Each compound was dissolved in DMSO (Mallinkrodt Lot No. V18H15) to achieve a concentration of 200 mg/ml, and then 3 parts sesame oil (Spectrum Lot No. M10656) was added to make a working concentration of 50 mg/ml for dose administration. Stability, strength, and uniformity of the test articles in the dose formulations were not determined for this study.
Forty-two CD1 male mice purchased from Charles River Laboratories (Wilmington, Mass.) were used in the study. Mice were quarantined for 3 days prior to initiation of the study.
Mice were weighed and randomized into treatment groups on the day prior to the first dose administration. Due to limitations in the amount of available test materials, fewer mice in 1000 mg/kg groups were treated than specified in the protocol. The numbers of animals intended to be used and actually used with each compound at each dose level are shown in the table below; the only differences are in the high-dose groups.
Surviving animals were sacrificed on Day 8 and blood was collected for clinical pathology evaluations.
Mortality and morbidity were checked twice daily on weekdays and once daily on the weekend, see Table VI. Animals were weighed daily and prior to necropsy.

[9] = rat liver microsomes; cited from earlier work

| SMILES | pIC50 ([2]; Table I, NF54 strain) | IC50 [2] | also measured |
| --- | --- | --- | --- |
| C[C@@H]1[C@H](OCc2ccc(C(=O)O)cc2)O[C@@H]2O[C@@]3(C)CC[C@@H]4[C@@H](C)CC[C@@H]1[C@]24OO3 [Artelinic Acid, artelinic acid, reference compound] | – | – | ED50 ([1]; route IV): 11.0 mg/kg × 4 and 5.6 mg/kg × 4; ED90 ([1]; route IV): 25.0 mg/kg × 4 and 43.0 mg/kg × 4; % Parasite Supression at 10 mg/kg ([1]; route IV): 54.7% and 42.4% |
| C=C(CC1OC2OC3(C)CCC4C(C)CCC(C1C)C24OO3)CC1OC2OC3(C)CCC4C(C)CCC(C1C)C24OO3 (stereo not drawn) [Compound 3, trioxane isobutene dimer] | – | – | pIC50 [2]: 7.62; stability in air and light in words [3]: stable in air and light at room temperature for at least six months |
| C[C@@H]1CC[C@H]2[C@@H](C)C(CC3(CC4OC5O[C@]6(C)CC[C@H]7[C@H](C)CC[C@@H]([C@H]4C)C57OO6)CO3)OC3O[C@]4(C)CCC1C32OO4 (stereo partly drawn) [Compound 6, bis-trioxane epoxide] | 8.55 | – | growth inhibition in words [4]: less inhibitory |
| C[C@@H]1CC[C@H]2[C@@H](C)C(CC(=O)CC3OC4O[C@]5(C)CC[C@H]6[C@H](C)CC[C@@H]([C@H]3C)C46OO5)OC3O[C@]4(C)CCC1C32OO4 (stereo partly drawn) [Compound 7, bis-trioxane ketone] | 9.04 | below one nM | antimalarial potency in vitro relative to artemisinin [2]: 10 times; growth inhibition in words [4]: less inhibitory |
| CC1CCC2C(C)C(CC(COC(=O)c3ccncc3)CC3OC4OC5(C)CCC6C(C)CCC(C3C)C46OO5)OC3OC4(C)CCC1C32OO4 (stereo not drawn) [Compound 8b, bis-trioxane primary alcohol isonicotinate] | 8.77 | – | – |
| CC1CCC2C(C)C(CC(COC(=O)c3ccc[n+]([O-])c3)CC3OC4OC5(C)CCC6C(C)CCC(C3C)C46OO5)OC3OC4(C)CCC1C32OO4 (stereo not drawn) [Compound 15, bis-trioxane primary alcohol nicotinate N-oxide] | 9.24 | sub-nanomolar | – |
| CC1CCC2C(C)C(CC(O)CC3OC4OC5(C)CCC6C(C)CCC(C3C)C46OO5)OC3OC4(C)CCC1C32OO4 (stereo not drawn) [Compound 17, bis-trioxane secondary alcohol] | 9.18 | below one nM | – |
| CC1CCC2C(C)C(CC(O)(COC(=O)c3cc[n+]([O-])cc3)CC3OC4OC5(C)CCC6C(C)CCC(C3C)C46OO5)OC3OC4(C)CCC1C32OO4 (stereo not drawn) [Compound 18, bis-trioxane vicinal diol isonicotinate N-oxide] | 9.47 | sub-nanomolar | – |
| CC1CCC2C(C)C(CC(O)(COCC(=O)O)CC3OC4OC5(C)CCC6C(C)CCC(C3C)C46OO5)OC3OC4(C)CCC1C32OO4 (stereo not drawn) [Compound 21, bis-trioxane β-hydroxy O-acetic acid] | 8.36 | – | – |
| CC1CCC2C(C)C(CC(O)(COC(=O)c3ccc[n+]([O-])c3)CC3OC4OC5(C)CCC6C(C)CCC(C3C)C46OO5)OC3OC4(C)CCC1C32OO4 (stereo not drawn) [Compound 23, bis-trioxane vicinal diol nicotinate N-oxide] | 9.40 | sub-nanomolar | – |
| CC1CCC2C(C)C(CC(CC3OC4OC5(C)CCC6C(C)CCC(C3C)C46OO5)OC(=O)c3cc[n+]([O-])cc3)OC3OC4(C)CCC1C32OO4 (stereo not drawn) [Compound 24, bis-trioxane secondary alcohol isonicotinate N-oxide] | 9.38 | sub-nanomolar | – |
| CC1CCC2C(C)C(CC(CC3OC4OC5(C)CCC6C(C)CCC(C3C)C46OO5)OC(=O)c3ccc[n+]([O-])c3)OC3OC4(C)CCC1C32OO4 (stereo not drawn) [Compound 25, bis-trioxane secondary alcohol nicotinate N-oxide] | 9.51 | sub-nanomolar | – |
| CCOP(=O)(OCC)OCC(CC1OC2OC3(C)CCC4C(C)CCC(C1C)C24OO3)CC1OC2OC3(C)CCC4C(C)CCC(C1C)C24OO3 (stereo not drawn) [Compound 26, bis-trioxane primary alcohol diethyl phosphoric acid triester] | 9.13 | sub-nanomolar | – |
| COP(=O)(OC)OCC(CC1OC2OC3(C)CCC4C(C)CCC(C1C)C24OO3)CC1OC2OC3(C)CCC4C(C)CCC(C1C)C24OO3 (stereo not drawn) [Compound 27, bis-trioxane primary alcohol dimethyl phosphoric acid triester] | 9.32 | sub-nanomolar | – |
| CC1CCC2C(C)C(OC(=O)CN(C)C)OC3OC4(C)CCC1C32OO4 (stereo not drawn) [Compound 32, α-dihydroartemisinin dimethylglycinate] | 8.96 | – | – |
| CC1CCC2C(C)C(OC(=O)c3cc[n+]([O-])cc3)OC3OC4(C)CCC1C32OO4 (stereo not drawn) [Compound 33, α-dihydroartemisinin isonicotinate N-oxide] | 9.09 | – | – |
| CC1CCC2C(C)C(CC(O)(CC(=O)O)CC3OC4OC5(C)CCC6C(C)CCC(C3C)C46OO5)OC3OC4(C)CCC1C32OO4 (stereo not drawn) [Compound 35, bis-trioxane tertiary alcohol carboxylic acid] | 8.70 | – | – |
| COC(=O)OCC(CC1OC2OC3(C)CCC4C(C)CCC(C1C)C24OO3)CC1OC2OC3(C)CCC4C(C)CCC(C1C)C24OO3 (stereo not drawn) [Compound 36, bis-trioxane primary alcohol methyl carbonate] | 8.77 | – | – |
| CCOC(=O)OCC(CC1OC2OC3(C)CCC4C(C)CCC(C1C)C24OO3)CC1OC2OC3(C)CCC4C(C)CCC(C1C)C24OO3 (stereo not drawn) [Compound 37, bis-trioxane primary alcohol ethyl carbonate] | 8.55 | – | – |
| COS(=O)(=O)CC(O)(CC1OC2OC3(C)CCC4C(C)CCC(C1C)C24OO3)CC1OC2OC3(C)CCC4C(C)CCC(C1C)C24OO3 (stereo not drawn) [Compound 38, bis-trioxane tertiary alcohol methyl sulfonate] | 6.70 | – | – |
| CC1CCC2C(C)C(CC(O)(CC3OC4OC5(C)CCC6C(C)CCC(C3C)C46OO5)CS(=O)(=O)N(C)C)OC3OC4(C)CCC1C32OO4 (stereo not drawn) [Compound 40, bis-trioxane tertiary alcohol N,N-dimethylsulfonamide] | 9.14 | sub-nanomolar | – |
| CC1CCC2C(C)C(CC3(CC4OC5OC6(C)CCC7C(C)CCC(C4C)C57OO6)COC(=O)O3)OC3OC4(C)CCC1C32OO4 (stereo not drawn) [Compound 41, bis-trioxane vicinal diol cyclic carbonate] | 9.23 | sub-nanomolar | – |
| CC1CCC2C(C)C(CC3(CC4OC5OC6(C)CCC7C(C)CCC(C4C)C57OO6)COS(=O)(=O)O3)OC3OC4(C)CCC1C32OO4 (stereo not drawn) [Compound 42, bis-trioxane vicinal diol cyclic sulfate] | 7.72 | – | – |
| C[C@H]1[C@@H](O[C@H]2O[C@@H]3O[C@@]4(C)CC[C@H]5[C@H](C)CC[C@@H]([C@H]2C)[C@@]35OO4)O[C@@H]2O[C@@]3(C)CC[C@H]4[C@H](C)CC[C@@H]1[C@@]24OO3 [II-7, dihydroartemisinin condensation by-product] | – | – | SD90 [5]: 10 mg/kg; pIC50 [6]: 5.85 |
| CC1=CO[C@@H]2O[C@]3(C)CC[C@H]4[C@H](C)CC[C@@H]1[C@@]24OO3 [III] | – | – | activity in words [5]: inactive |
| C[C@H]1[C@H](OC(=O)CCC(=O)[O-])O[C@@H]2O[C@@]3(C)CC[C@H]4[C@H](C)CC[C@@H]1[C@@]24OO3.[Na+] [Sodium Artesunate, sodium artesunate, reference compound] | – | – | ED50 ([1]; route PO): 10.0 mg/kg × 4 and 5.5 mg/kg × 4; ED90 ([1]; route PO): 39.0 mg/kg × 4 and 70.0 mg/kg × 4; % Parasite Supression at 10 mg/kg ([1]; route PO): 52.8% and 50.9%; ED50 ([7]; Route: IV): 5 mg/kg; ED90 ([7]; Route: IV): 40.0; ED50 ([7]; Route: PO): 6 mg/kg; ED90 ([7]; Route: PO): 60.0; Mortality ([8]; 125 mg/kg): No death; Mortality ([8]; 250 mg/kg): 1/3 dead; Mortality ([8]; 500 mg/kg): 3/3 dead |
| CCO[C@H]1O[C@@H]2O[C@@]3(C)CC[C@H]4[C@H](C)CC[C@@H]([C@H]1C)[C@@]24OO3 [arteether] | – | – | conversion into dihydroartemisinin [9]: rapidly converted |
